Test results reported in PubChem BioAssay AID1259407 (Chemical Carcinogenesis Research Information System (CCRIS), 2018).
Calls of active or inactive are those of the source. The rule behind the calls is not given here.

Tested on: CCRIS mutagenicity, Ames/micronucleus/aberration tests
Test: CCRIS mutagenicity studies
[1] = Test System: AMES SALMONELLA TYPHIMURIUM, Strain/Indicator: TA98, Metabolic Activation: NONE, Method: PREINCUBATION
[2] = Test System: AMES SALMONELLA TYPHIMURIUM, Strain/Indicator: TA100, Metabolic Activation: NONE, Method: PREINCUBATION
[3] = Test System: AMES SALMONELLA TYPHIMURIUM, Strain/Indicator: TA1535, Metabolic Activation: NONE, Method: PREINCUBATION
[4] = Test System: AMES SALMONELLA TYPHIMURIUM, Strain/Indicator: TA98, Metabolic Activation: NONE, Method: STANDARD PLATE
[5] = Test System: AMES SALMONELLA TYPHIMURIUM, Strain/Indicator: TA100, Metabolic Activation: NONE, Method: STANDARD PLATE

Measured: mutagenic call

C=C(C)[C@@]12OC3(c4ccccc4)O[C@@H]1[C@@H]1[C@@H]4OC4(CO)[C@@H](O)[C@]4(O)C(=O)C(C)=C[C@H]4[C@@]1(O3)[C@H](C)[C@H]2OC(=O)/C=C/C=C/c1ccccc1 (stereo not given in full)
inactive: Test System: AMES SALMONELLA TYPHIMURIUM, Strain/Indicator: TA97, Metabolic Activation: HAMSTER, LIVER, S-9, AROCLOR 1254 (10 OR 30%), Method: PREINCUBATION inactive; negative | Test System: AMES SALMONELLA TYPHIMURIUM, Strain/Indicator: TA97, Metabolic Activation: NONE, Method: PREINCUBATION inactive; negative | Test System: AMES SALMONELLA TYPHIMURIUM, Strain/Indicator: TA97, Metabolic Activation: RAT, LIVER, S-9, AROCLOR 1254 (10 OR 30%), Method: PREINCUBATION inactive; negative | Test System: AMES SALMONELLA TYPHIMURIUM, Strain/Indicator: TA98, Metabolic Activation: HAMSTER, LIVER, S-9, AROCLOR 1254 (10 OR 30%), Method: PREINCUBATION inactive; negative | [1] inactive; negative | Test System: AMES SALMONELLA TYPHIMURIUM, Strain/Indicator: TA98, Metabolic Activation: RAT, LIVER, S-9, AROCLOR 1254 (10 OR 30%), Method: PREINCUBATION inactive; negative | Test System: AMES SALMONELLA TYPHIMURIUM, Strain/Indicator: TA100, Metabolic Activation: HAMSTER, LIVER, S-9, AROCLOR 1254 (10 OR 30%), Method: PREINCUBATION inactive; negative | [2] inactive; negative | Test System: AMES SALMONELLA TYPHIMURIUM, Strain/Indicator: TA100, Metabolic Activation: RAT, LIVER, S-9, AROCLOR 1254 (10 OR 30%), Method: PREINCUBATION inactive; negative | Test System: AMES SALMONELLA TYPHIMURIUM, Strain/Indicator: TA1535, Metabolic Activation: HAMSTER, LIVER, S-9, AROCLOR 1254 (10 OR 30%), Method: PREINCUBATION inactive; negative | [3] inactive; negative | Test System: AMES SALMONELLA TYPHIMURIUM, Strain/Indicator: TA1535, Metabolic Activation: RAT, LIVER, S-9, AROCLOR 1254 (10 OR 30%), Method: PREINCUBATION inactive; negative

Cc1c2ccccc2c(CCl)c2ccccc12
active: Test System: AMES SALMONELLA TYPHIMURIUM, Strain/Indicator: TA1537, Metabolic Activation: NONE, Method: STANDARD PLATE active; positive

[O]=[V]([OH])([OH])[OH]
inactive: End Point: IN VIVO MICRONUCLEUS, Test System: POLYCHROMATIC ERYTHROCYTES, Species: MOUSE, Strain/Sex: (102/E1 X C3H/E1)F1/MALE, Route: IP INJECTION inactive; negative

C=CCCCCCCCCCCCCC
inactive: Test System: AMES SALMONELLA TYPHIMURIUM, Strain/Indicator: TA98, Metabolic Activation: MOUSE, LIVER, S-9, Method: STANDARD PLATE inactive; negative | [4] inactive; negative | Test System: AMES SALMONELLA TYPHIMURIUM, Strain/Indicator: TA100, Metabolic Activation: MOUSE, LIVER, S-9, Method: STANDARD PLATE inactive; negative | [5] inactive; negative | Test System: AMES SALMONELLA TYPHIMURIUM, Strain/Indicator: TA1535, Metabolic Activation: NONE, Method: STANDARD PLATE inactive; negative | Test System: AMES SALMONELLA TYPHIMURIUM, Strain/Indicator: TA1538, Metabolic Activation: NONE, Method: STANDARD PLATE inactive; negative

O=NN1CN(N=O)CN(N=O)C1
inactive: Test System: Ames Salmonella typhimurium, Strain/Indicator: TA97a, Metabolic Activation: None, Method: Preincubation inactive; negative | Test System: Ames Salmonella typhimurium, Strain/Indicator: TA98, Metabolic Activation: Rat, Liver, S-9, Aroclor 1254, Method: Preincubation inactive; negative | Test System: Ames Salmonella typhimurium, Strain/Indicator: TA100, Metabolic Activation: Rat, Liver, S-9, Aroclor 1254, Method: Preincubation inactive; negative
active: Test System: Ames Salmonella typhimurium, Strain/Indicator: TA97a, Metabolic Activation: Rat, Liver, S-9, Aroclor 1254, Method: Preincubation active; positive | Test System: Ames Salmonella typhimurium, Strain/Indicator: TA102, Metabolic Activation: Rat, Liver, S-9, Aroclor 1254, Method: Preincubation active; positive

O=C(O)/C(Cl)=C(/CCl)C(=O)O
inactive: [1] inactive; negative | [2] inactive; negative | Test System: AMES SALMONELLA TYPHIMURIUM, Strain/Indicator: TA104, Metabolic Activation: NONE, Method: PREINCUBATION inactive; negative

O=[N+]([O-])c1c2c(cc3ccccc13)[C@@H](O)[C@H](O)C=C2
inactive: [5] inactive; negative | Test System: AMES SALMONELLA TYPHIMURIUM, Strain/Indicator: TA100, Metabolic Activation: RAT, LIVER, S-9, Method: STANDARD PLATE inactive; negative
active: [4] active; positive | Test System: AMES SALMONELLA TYPHIMURIUM, Strain/Indicator: TA98, Metabolic Activation: RAT, LIVER, S-9, Method: STANDARD PLATE active; positive

O=[N+]([O-])c1ccc2c(c1)-c1cccc3cccc-2c13
active: [4] active; positive

CC1CC(OC(=O)c2ccccc2O)CC(C)(C)C1 (stereo not given)
inactive: Test System: AMES SALMONELLA TYPHIMURIUM, Strain/Indicator: TA98, Metabolic Activation: HAMSTER, LIVER, S-9, AROCLOR 1254 (10%), Method: PREINCUBATION inactive; negative | [1] inactive; negative | Test System: AMES SALMONELLA TYPHIMURIUM, Strain/Indicator: TA98, Metabolic Activation: RAT, LIVER, S-9, AROCLOR 1254 (10%), Method: PREINCUBATION inactive; negative | Test System: AMES SALMONELLA TYPHIMURIUM, Strain/Indicator: TA100, Metabolic Activation: HAMSTER, LIVER, S-9, AROCLOR 1254 (10%), Method: PREINCUBATION inactive; negative | [2] inactive; negative | Test System: AMES SALMONELLA TYPHIMURIUM, Strain/Indicator: TA100, Metabolic Activation: RAT, LIVER, S-9, AROCLOR 1254 (10%), Method: PREINCUBATION inactive; negative | Test System: AMES SALMONELLA TYPHIMURIUM, Strain/Indicator: TA1535, Metabolic Activation: HAMSTER, LIVER, S-9, AROCLOR 1254 (10%), Method: PREINCUBATION inactive; negative | [3] inactive; negative | Test System: AMES SALMONELLA TYPHIMURIUM, Strain/Indicator: TA1535, Metabolic Activation: RAT, LIVER, S-9, AROCLOR 1254 (10%), Method: PREINCUBATION inactive; negative | Test System: AMES SALMONELLA TYPHIMURIUM, Strain/Indicator: TA1537, Metabolic Activation: HAMSTER, LIVER, S-9, AROCLOR 1254 (10%), Method: PREINCUBATION inactive; negative | Test System: AMES SALMONELLA TYPHIMURIUM, Strain/Indicator: TA1537, Metabolic Activation: NONE, Method: PREINCUBATION inactive; negative | Test System: AMES SALMONELLA TYPHIMURIUM, Strain/Indicator: TA1537, Metabolic Activation: RAT, LIVER, S-9, AROCLOR 1254 (10%), Method: PREINCUBATION inactive; negative
